Data on 3 compounds can be found in patent US20210070731A1, “TRICYCLIC KINASE INHIBITORS AND USE THEREOF” (priority 2019, published 2021).

In general, IC50 refers to the point on the concentration scale where inhibition reaches its midpoint. High values mean lower potency, low ones higher potency.

What all share (assay type): biochemical
Holding throughout (settings): 100 uM ATP, 3 hr incubation, four-parameter fit

One assay concerns the target T1, CLK1 (Homo sapiens, UniProt P49759).
T1 construct: purchased SignalChem
Put plainly: Phosphorylation assay ([γ-32P]-ATP, P81 paper), CLK1. From the text: (§1) Kinase activity and inhibition can be measured using binding assays as well as phosphorylation assays. In the binding assays, e.g. KinaseSeeker (Luceome Biotechnologies, Tucson, Ariz.) or Kinomescan (Eurofins), the competitive displacement of a kinase active site binding probe by a compound is detected and serves as a measure of compound inhibition. In phosphorylation assays, e.g. radioactivity assays or ADP-Glo (Promega) assays, the phosphorylation of a peptide or protein substrate is used to evaluate enzyme activity, and the reduction of phosphorylation in presence of a compounds serves as a measure of compound inhibition. The inhibitor compounds described herein are screened in the following manner.
(§2) For phosphorylation assays, 30 ng of the active kinase (SignalChem) in kinase assay buffer was incubated with either inhibitor in DMSO or DMSO (no inhibitor control). Reaction was started by the addition of 10 mM magnesium sulfate, 100 uM [γ-^32P]-ATP and appropriate concentration of the relevant peptide substrate. After 3 hr incubation, the reaction was terminated by spotting 25 μl of the reaction mixture onto P81 paper strips. The paper strips were air dried, washed three times with 0.85% phosphoric acid and finally with acetone. The P81 paper was immersed in 10 mL of scintillation cocktail, and the radioactive counts were measured. For dose dependent curves, kinases were treated at varying concentrations of the compound in activity assays and IC50 values were determined using a four-parameter fit. The IC50 values against a select set of kinases is given below.

For another assay, the target named is T2, NUAK1 (Homo sapiens, UniProt O60285).
T2 construct: purchased SignalChem
T2 sequence (O60285 1-661): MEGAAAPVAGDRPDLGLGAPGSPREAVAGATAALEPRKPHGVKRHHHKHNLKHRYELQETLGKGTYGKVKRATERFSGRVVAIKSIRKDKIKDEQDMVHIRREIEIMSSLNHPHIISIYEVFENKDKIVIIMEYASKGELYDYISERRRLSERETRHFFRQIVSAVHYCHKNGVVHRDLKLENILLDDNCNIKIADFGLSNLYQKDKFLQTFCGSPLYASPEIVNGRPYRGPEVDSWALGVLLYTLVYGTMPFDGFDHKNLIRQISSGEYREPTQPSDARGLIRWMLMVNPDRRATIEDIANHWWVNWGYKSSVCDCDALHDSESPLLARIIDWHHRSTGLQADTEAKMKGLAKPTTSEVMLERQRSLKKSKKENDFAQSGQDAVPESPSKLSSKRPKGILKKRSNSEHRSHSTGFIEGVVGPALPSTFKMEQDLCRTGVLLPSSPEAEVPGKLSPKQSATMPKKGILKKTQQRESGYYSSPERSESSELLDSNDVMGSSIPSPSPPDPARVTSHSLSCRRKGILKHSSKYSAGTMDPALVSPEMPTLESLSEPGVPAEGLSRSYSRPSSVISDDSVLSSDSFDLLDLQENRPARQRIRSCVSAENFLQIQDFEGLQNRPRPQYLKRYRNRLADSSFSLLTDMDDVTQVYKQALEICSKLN
Kind of assay: Phosphorylation assay ([γ-32P]-ATP, P81 paper), NUAK1.
Text: as §1, §2

The target of another assay is T3, NUAK2 (Homo sapiens, UniProt Q9H093).
T3 construct: purchased SignalChem
T3 sequence (Q9H093 1-628): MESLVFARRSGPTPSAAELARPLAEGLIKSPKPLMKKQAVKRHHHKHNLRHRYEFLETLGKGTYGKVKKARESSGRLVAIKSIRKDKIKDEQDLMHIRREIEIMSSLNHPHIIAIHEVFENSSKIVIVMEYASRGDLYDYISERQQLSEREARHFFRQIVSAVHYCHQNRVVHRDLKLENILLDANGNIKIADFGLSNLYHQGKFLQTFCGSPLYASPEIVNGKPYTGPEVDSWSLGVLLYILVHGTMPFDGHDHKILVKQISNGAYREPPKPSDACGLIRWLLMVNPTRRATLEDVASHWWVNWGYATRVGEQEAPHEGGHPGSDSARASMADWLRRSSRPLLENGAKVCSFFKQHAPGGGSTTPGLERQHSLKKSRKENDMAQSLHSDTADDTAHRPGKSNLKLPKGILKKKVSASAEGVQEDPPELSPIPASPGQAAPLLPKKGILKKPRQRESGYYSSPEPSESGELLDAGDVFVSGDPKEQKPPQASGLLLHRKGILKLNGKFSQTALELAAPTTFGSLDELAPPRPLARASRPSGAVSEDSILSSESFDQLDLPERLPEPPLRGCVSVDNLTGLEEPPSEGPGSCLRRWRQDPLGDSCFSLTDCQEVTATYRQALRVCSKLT
Kind of assay: Phosphorylation assay ([γ-32P]-ATP, P81 paper), NUAK2.
Text: as §1, §2

The target of a further assay is T4, CLK2 (Homo sapiens, UniProt P49760).
T4 construct: purchased SignalChem
Kind of assay: Phosphorylation assay ([γ-32P]-ATP, P81 paper), CLK2.
Text: as §1, §2

In the next assay the target is T5, SIK2 (Homo sapiens, UniProt Q9H0K1).
T5 construct: purchased SignalChem
Kind of assay: Phosphorylation assay ([γ-32P]-ATP, P81 paper), SIK2.
Text: as §1, §2

Structures can show the parent of a compound that is named as a salt. A value given as a limit tells only on which side of the number the result lay.

T4 sequence (P49760 whole entry): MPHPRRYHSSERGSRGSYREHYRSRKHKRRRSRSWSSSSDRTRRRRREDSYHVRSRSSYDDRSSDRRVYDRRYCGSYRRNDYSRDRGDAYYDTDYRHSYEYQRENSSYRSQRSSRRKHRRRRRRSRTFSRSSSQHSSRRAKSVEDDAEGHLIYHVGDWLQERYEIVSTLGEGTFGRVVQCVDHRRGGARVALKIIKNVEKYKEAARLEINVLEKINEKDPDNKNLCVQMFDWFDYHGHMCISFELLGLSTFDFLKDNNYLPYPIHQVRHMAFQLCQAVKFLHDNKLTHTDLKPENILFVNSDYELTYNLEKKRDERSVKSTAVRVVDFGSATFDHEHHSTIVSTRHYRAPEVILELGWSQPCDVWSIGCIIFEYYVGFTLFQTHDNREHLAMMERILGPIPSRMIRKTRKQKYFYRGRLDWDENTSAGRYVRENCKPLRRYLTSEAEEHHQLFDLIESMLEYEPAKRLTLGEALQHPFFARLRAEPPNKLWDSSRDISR
T5 sequence (Q9H0K1 whole entry): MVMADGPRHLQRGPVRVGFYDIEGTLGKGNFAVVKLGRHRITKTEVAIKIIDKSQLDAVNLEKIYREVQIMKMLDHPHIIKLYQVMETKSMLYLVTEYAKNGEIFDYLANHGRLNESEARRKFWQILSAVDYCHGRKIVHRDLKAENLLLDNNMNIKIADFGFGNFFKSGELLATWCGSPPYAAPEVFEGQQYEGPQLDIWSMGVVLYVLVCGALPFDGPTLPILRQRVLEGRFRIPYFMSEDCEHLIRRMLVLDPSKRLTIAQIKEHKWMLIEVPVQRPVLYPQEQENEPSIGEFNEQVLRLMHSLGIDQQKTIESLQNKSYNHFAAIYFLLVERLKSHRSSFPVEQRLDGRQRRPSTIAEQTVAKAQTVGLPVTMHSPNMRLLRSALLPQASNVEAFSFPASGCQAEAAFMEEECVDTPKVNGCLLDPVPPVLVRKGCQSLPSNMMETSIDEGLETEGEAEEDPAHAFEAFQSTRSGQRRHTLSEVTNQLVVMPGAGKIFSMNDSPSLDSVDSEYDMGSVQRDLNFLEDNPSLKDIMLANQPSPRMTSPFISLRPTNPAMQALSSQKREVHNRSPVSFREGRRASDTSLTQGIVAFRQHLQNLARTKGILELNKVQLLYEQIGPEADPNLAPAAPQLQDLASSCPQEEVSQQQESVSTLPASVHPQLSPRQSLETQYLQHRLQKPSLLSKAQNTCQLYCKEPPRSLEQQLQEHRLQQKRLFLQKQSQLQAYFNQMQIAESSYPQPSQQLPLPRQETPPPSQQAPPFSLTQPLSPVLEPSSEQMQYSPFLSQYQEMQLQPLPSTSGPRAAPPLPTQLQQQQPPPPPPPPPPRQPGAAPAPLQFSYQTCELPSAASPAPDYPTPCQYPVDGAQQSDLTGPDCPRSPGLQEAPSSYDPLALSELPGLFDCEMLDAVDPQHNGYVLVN
T1 sequence (P49759 whole entry): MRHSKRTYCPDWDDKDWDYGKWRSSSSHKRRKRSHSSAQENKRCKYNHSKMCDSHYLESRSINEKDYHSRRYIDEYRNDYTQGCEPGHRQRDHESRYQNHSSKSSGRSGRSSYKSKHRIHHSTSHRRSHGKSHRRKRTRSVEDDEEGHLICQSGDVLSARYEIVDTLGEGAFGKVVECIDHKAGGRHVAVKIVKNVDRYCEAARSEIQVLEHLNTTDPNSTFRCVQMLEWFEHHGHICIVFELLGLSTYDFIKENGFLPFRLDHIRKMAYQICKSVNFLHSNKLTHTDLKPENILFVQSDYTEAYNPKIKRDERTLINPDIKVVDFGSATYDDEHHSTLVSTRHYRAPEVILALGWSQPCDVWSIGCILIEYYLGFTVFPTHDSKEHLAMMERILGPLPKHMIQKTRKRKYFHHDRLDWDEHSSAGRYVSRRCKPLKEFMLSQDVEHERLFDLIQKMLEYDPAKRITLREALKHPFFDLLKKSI

`CN1Cc2ccccc2N(C)c2cc(Nc3ccn(C4CCNCC4)n3)ncc21` [Compound 14, 5,11-dimethyl-N-(1-(piperidin-4-yl)-1H-pyrazol-3-yl)-10,11-dihydro-5H-benzo[e]pyrido[3,4-b][1,4]diazepin-3-amine]: the 50% inhibitory concentration (IC50) on CLK1 came to 2700 nM; against NUAK1, 1300 nM; on NUAK2 it was 4600 nM; at CLK2, 1500 nM; against SIK2 it was 18600 nM.
For the compound `CN1C(=O)c2ccccc2N(C)c2cc(Nc3ccn(C4CCNCC4)n3)ncc21` [Compound 30, 5,11-dimethyl-3-((1-(piperidin-4-yl)-H-pyrazol-3-yl)amino)-5,11-dihydro-10H-benzo[e]pyrido[3,4-b][1,4]diazepin-10-one TFA Salt], the IC50 on CLK1 came to 57800 nM; at NUAK1, 130 nM; on NUAK2 it was 340 nM; at CLK2, 33000 nM; at SIK2 it was 1500 nM.
Take `CN1Cc2cnc(Nc3ccn(C4CCNCC4)n3)cc2N(C)c2ccccc21` [Compound 24, 5,10-dimethyl-N-(1-(piperidin-4-yl)-1H-pyrazol-3-yl)-10,11-dihydro-5H-benzo[b]pyrido[4,3-e][1,4]diazepin-3-amine]: the IC50 is above 50000 nM on CLK1; 1300 nM against NUAK1; 7000 nM at NUAK2; 9500 nM on CLK2; 690 nM against SIK2.
